Patent US4141989A, “Fungicidal 3-(N-chloroacetyl-N-arylamino)-gamma-butyrolactone compositions” (Chevron Research Company, priority 1977, dated 1979)

How the values were obtained:
[1] = system: Pseudoperonospora cubensis; test: Foliar spray control of cucumber downy mildew (Example 15, Table X); format: in vivo
[2] = system: Phytophthora cryptogea; test: Safflower crown and root rot control by soil drench, P. cryptogea (Example 18, Table XIII); format: in vivo
[3] = system: Peronospora parasitica ssp. brassicae; test: Preventive control of cabbage downy mildew (Example 14, Table IX); format: in vivo; details: for % Control: disease reduction relative to check flat
[4] = system: Peronospora parasitica ssp. brassicae; test: Curative control of cabbage downy mildew (Example 14, Table IX); format: in vivo; details: for % Control: disease reduction relative to check flat
[5] = system: Plasmopara viticola; test: Eradicant downy mildew control on grape cuttings, wettable powder (Example 10, Table V); format: in vivo
Procedure: Three-month-old single-bud Cabernet Sauvignon cuttings (cultivated in gravel) containing 6 to 10 leaves were used as hosts. The undersides of the leaves were sprayed with a sporangial suspension of Plasmopara viticola containing 510,000 conidia per milliliter of water. The inoculated cuttings were placed into a misting chamber. […] Ten to 11 days after the inoculation, the amount of disease control was determined. The percent disease control provided by the test compound was based on the percent disease reduction relative to untreated check cuttings.

[6] = system: Plasmopara viticola; test: Eradicant grape downy mildew control, detached Emperor leaves (Example 6, Table I); format: in vivo; details: 48 h, sprayed 2 days after inoculation, read-out: Eradicative Grape Downy Mildew Control, %
[7] = system: P. cryptogea; test: Tobacco crown and root rot control by soil drench, P. cryptogea (Example 19, Table XIV); format: in vivo
[8] = system: yeasts responsible for the alcoholic fermentation of grapes; test: Fermentation test, grape juice (Example 8, Table III); format: cell-based
[9] = system: Phytophthora cryptogea; test: Safflower crown and root rot control by foliar spray (Example 17, Table XII); format: in vivo
[10] = system: Plasmopara viticola; test: Preventive grape downy mildew control, detached Emperor leaves (Example 5, Table I); format: in vivo; details: 6.4 ppm, sprayed before inoculation
[11] = system: Plasmopara viticola; test: Residual preventive grape downy mildew control, wettable powder (Example 11, Table VI); format: in vivo; details: 160 ppm, inoculated 3 days after treatment
Procedure: Three-month-old single-bud Cabernet Sauvignon cuttings (cultivated in gravel), containing 5 to 8 leaves, were used as hosts. […] Three days after fungicide treatment, the undersides of the leaves were sprayed with a sporangial suspension of Plasmopara viticola. The inoculated cuttings were put into a misting chamber. Eight to 10 days after the inoculation, the amount of disease control was determined. The percent disease control provided by the test compound was based on the percent disease reduction relative to untreated check cuttings.

[12] = system: Bremia lactucae; test: Control of lettuce downy mildew (Example 13, Table VIII); format: in vivo
[13] = system: Plasmopora viticola; test: Control of foliar grape downy mildew infection by root absorption (Example 12, Table VII); format: in vivo; details: 50% wettable powder, 50 ppm
From the text: Three-month-old single-bud Cabernet Sauvignon cuttings (cultivated in gravel), containing 9 to 12 leaves, were used as hosts. […] The cuttings were then replanted in gravel and put into a misting chamber. At four different times after root treatment, the leaf undersides were sprayed with a sporangial suspension of Plasmopora viticola. The inoculated cuttings were placed into the misting chamber to stimulate disease development. Ten to 12 days after inoculation, the amount of disease control was determined. The percent disease control provided by the test compound was based on the percent disease reduction relative to untreated check cuttings.

[14] = system: Plasmopara viticola; test: Preventive grape downy mildew control, detached Cabernet Sauvignon leaves (Example 7, Table II); format: in vivo
[15] = Oral LD50 (rats); details: rat, in vivo
[16] = system: Phytophthora cryptogea; test: Snapdragon crown and root rot control, soil drench (Example 16, Table XI); format: in vivo; details: soil drench, 100 ppm
[17] = system: Phytophthora parasitica; test: Tobacco crown and root rot control by soil drench, P. parasitica (Example 19, Table XIV); format: in vivo
[18] = system: Phytophthora cryptogea; test: Snapdragon crown and root rot control, foliar spray (Example 16, Table XI); format: in vivo; details: foliar spray, 100 ppm
[19] = Dermal LD50 (rats); details: rat, in vivo, topical or ocular
[20] = system: Phytophthora capsici; test: Control of Phytophthora rot in sweet peppers (Example 20, Table XV); format: in vivo; details: 50% wettable powder
Procedure: The pots were then inoculated with the organism by spreading a bed of oats grain (contaminated with the Phytophthora capsici organism) on the soil surface and covering the bed with a 1-cm depth of sterilized soil. The sweet pepper seedlings were then sprayed to runoff with an aqueous suspension of the test compound at various test concentrations (12 pots per concentration level). The amount of disease control was determined by counting the number of dead plants. The percent disease control provided by the test compound was based on the percent disease reduction relative to untreated check seedlings.

[21] = system: P. parasitica; test: Safflower crown and root rot control by soil drench, P. parasitica (Example 18, Table XIII); format: in vivo
[22] = 61.5 ppm, treated 3 days after inoculation
[23] = 62.5 ppm, treated 1 day after inoculation
[24] = 62.5 ppm, treated 2 days after inoculation
[25] = inoculated 1 day after root treatment
[26] = inoculated 5 days after root treatment

SMILES: Cc1cccc(C)c1N(C(=O)CCl)C1CCOC1=O (stereo not drawn) [Compound A, 3-(N-chloroacetyl-N-2,6-dimethylphenylamino)-gamma-butyrolactone]
- % Control ([1]; 16 ppm): 63%
- % Control ([1]; 40 ppm): 88%
- % Control ([1]; 100 ppm): 100%
- % Control, P. Cryptogea ([2]; 16 ppm): 92%
- % Control, P. Cryptogea ([2]; 40 ppm): 97%
- % Control, P. Cryptogea ([2]; 100 ppm): 100%
- % Diseased Seedlings ([3]; 20 g a.i./hl): 1.8%
- % Control ([3]; 20 g a.i./hl): 98.2%
- % Diseased Seedlings ([3]; 40 g a.i./hl): 2.2%
- % Control ([3]; 40 g a.i./hl): 97.7%
- % Diseased Seedlings ([3]; 80 g a.i./hl): 1.5%
- % Control ([3]; 80 g a.i./hl): 98.5%
- % Diseased Seedlings ([4]; 20 g a.i./hl): 1.8%
- % Control ([4]; 20 g a.i./hl): 98.2%
- % Diseased Seedlings ([4]; 40 g a.i./hl): 1.0%
- % Control ([4]; 40 g a.i./hl): 99.0%
- % Diseased Seedlings ([4]; 80 g a.i./hl): 0.6%
- % Control ([4]; 80 g a.i./hl): 99.4%
- % Disease Control [5, 22]: 84.7%
- % Leaf Surface Infected [5, 22]: 4.15%
- % Disease Control ([5]; 62.5 ppm): 91.6%
- % Disease Control [5, 23]: 97.6%
- % Leaf Surface Infected [5, 23]: 0.51%
- % Disease Control [5, 24]: 96.2%
- % Leaf Surface Infected [5, 24]: 0.55%
- % Leaf Surface Infected ([5]; 62.5 ppm, treated 5 days after inoculation): 2.5%
- pest or weed control at 6.4 ppm ([6]; 6.4 ppm): 99%
- pest or weed control at 100 ppm ([6]; 100 ppm): 99%
- % Control, P. Cryptogea ([7]; 16 ppm): 96%
- % Control, P. Cryptogea ([7]; 40 ppm): 99.8%
- % Control, P. Cryptogea ([7]; 100 ppm): 100%
- Cumulative loss of weight due to CO2 escape ([8]; 1 ppm, after 1 day): 0.9 grams
- Cumulative loss of weight due to CO2 escape ([8]; 1 ppm, after 2 days): 5.0 grams
- Cumulative loss of weight due to CO2 escape ([8]; 1 ppm, after 3 days): 10.5 grams
- Cumulative loss of weight due to CO2 escape ([8]; 1 ppm, after 4 days): 11.3 grams
- Cumulative loss of weight due to CO2 escape ([8]; 1 ppm, after 7 days): 14.2 grams
- Cumulative loss of weight due to CO2 escape ([8]; 1 ppm, after 8 days): 14.5 grams
- Cumulative loss of weight due to CO2 escape ([8]; 2 ppm, after 1 day): 0.8 grams
- Cumulative loss of weight due to CO2 escape ([8]; 2 ppm, after 2 days): 5.2 grams
- Cumulative loss of weight due to CO2 escape ([8]; 2 ppm, after 3 days): 10.4 grams
- Cumulative loss of weight due to CO2 escape ([8]; 2 ppm, after 4 days): 11.1 grams
- Cumulative loss of weight due to CO2 escape ([8]; 2 ppm, after 7 days): 13.4 grams
- Cumulative loss of weight due to CO2 escape ([8]; 2 ppm, after 8 days): 13.7 grams
- Cumulative loss of weight due to CO2 escape ([8]; 4 ppm, after 1 day): 1.0 grams
- Cumulative loss of weight due to CO2 escape ([8]; 4 ppm, after 2 days): 5.2 grams
- Cumulative loss of weight due to CO2 escape ([8]; 4 ppm, after 3 days): 10.4 grams
- Cumulative loss of weight due to CO2 escape ([8]; 4 ppm, after 4 days): 11.1 grams
- Cumulative loss of weight due to CO2 escape ([8]; 4 ppm, after 7 days): 13.1 grams
- Cumulative loss of weight due to CO2 escape ([8]; 4 ppm, after 8 days): 13.3 grams
- Cumulative loss of weight due to CO2 escape ([8]; 8 ppm, after 1 day): 1.0 grams
- Cumulative loss of weight due to CO2 escape ([8]; 8 ppm, after 2 days): 5.4 grams
- Cumulative loss of weight due to CO2 escape ([8]; 8 ppm, after 3 days): 11.0 grams
- Cumulative loss of weight due to CO2 escape ([8]; 8 ppm, after 4 days): 11.8 grams
- Cumulative loss of weight due to CO2 escape ([8]; 8 ppm, after 7 days): 14.5 grams
- Cumulative loss of weight due to CO2 escape ([8]; 8 ppm, after 8 days): 15.2 grams
- % Control ([9]; 16 ppm): 92%
- % Control ([9]; 40 ppm): 97%
- % Control ([9]; 100 ppm): 100%
- pest or weed control at 6.4 ppm [10]: 97%
- % Disease Control [11]: 99.8%
- % Leaf Surface Infected [11]: 0.03%
- % Control ([12]; 25 g active/hl): 75.8%
- % Dead Seedlings ([12]; 25 g active/hl): 5.9%
- % Control ([12]; 50 g active/hl): 90.6%
- % Dead Seedlings ([12]; 50 g active/hl): 1.1%
- % Control ([12]; 100 g active/hl): 95.5%
- % Dead Seedlings ([12]; 100 g active/hl): 2.3%
- % Disease Control [13, 25]: 33.5%
- % Leaf Surface Infected [13, 25]: 6.26%
- % Disease Control [13, 26]: 98%
- % Leaf Surface Infected [13, 26]: 0.32%
- Percent Control ([14]; 6.4 ppm): 100%
- Percent Control ([14]; 16 ppm): 100%
- Percent Control ([14]; 40 ppm): 100%
- LD50 [15]: > 1000 mg/kg
- % Control [16]: 100%
- % Control, P. Parasitica ([17]; 16 ppm): 96%
- % Control, P. Parasitica ([17]; 40 ppm): 99.8%
- % Control, P. Parasitica ([17]; 100 ppm): 100%
- % Control [18]: 97%
- LD50 [19]: > 2000 mg/kg
- % Control ([20]; 100 g/hl): 25%
- % Leaf Surface Damaged ([20]; 100 g/hl): 0%
- % of Alive Seedlings ([20]; 100 g/hl): 50%
- % Control ([20]; 200 g/hl): 100%
- % Leaf Surface Damaged ([20]; 200 g/hl): 1.3%
- % of Alive Seedlings ([20]; 200 g/hl): 100%
- % Control ([20]; 400 g/hl): 100%
- % Leaf Surface Damaged ([20]; 400 g/hl): 1.63%
- % of Alive Seedlings ([20]; 400 g/hl): 100%
- % Control, P. Parasitica ([21]; 16 ppm): 94%
- % Control, P. Parasitica ([21]; 40 ppm): 99%
- % Control, P. Parasitica ([21]; 100 ppm): 100%
